Laboratory results as given in paper PMC11277489, “Novel Piperazine Derivatives of Vindoline as Anticancer Agents” (International Journal of Molecular Sciences, 2024).

Columns and labels:
[1] = test system: CCRF-CEM; test: NCI60 one-dose screen (10 μM), Leukemia; format: cell-based; conditions: Homo sapiens, 10 μM, Leukemia, read-out: Growth percent rate
[2] = test system: HL-60(TB); test: NCI60 one-dose screen (10 μM), Leukemia; format: cell-based; conditions: Homo sapiens; 10 μM; HL-60(TB), Leukemia; read-out: Growth percent rate
[3] = test system: K-562; test: NCI60 one-dose screen (10 μM), Leukemia; format: cell-based; conditions: Homo sapiens, K562; 10 μM; K-562, Leukemia; read-out: Growth percent rate
[4] = test system: MOLT-4; test: NCI60 one-dose screen (10 μM), Leukemia; format: cell-based, human; conditions: Homo sapiens; 10 μM; MOLT-4, Leukemia; read-out: Growth percent rate
[5] = test system: RPMI-8226; test: NCI60 one-dose screen (10 μM), Leukemia; format: cell-based; conditions: Homo sapiens; 10 μM; RPMI-8226, Leukemia; read-out: Growth percent rate
[6] = test system: A549/ATCC; test: NCI60 one-dose screen (10 μM), Non-small Cell Lung Cancer; format: cell-based; conditions: Homo sapiens; 10 μM; A549/ATCC, Non-small Cell Lung Cancer; read-out: Growth percent rate
[7] = test system: HOP-62; test: as above; format: cell-based; conditions: Homo sapiens; 10 μM; HOP-62, Non-small Cell Lung Cancer; read-out: Growth percent rate
[8] = test system: NCI-H322M; test: as above; format: cell-based; conditions: Homo sapiens, 10 μM, Non-small Cell Lung Cancer, read-out: Growth percent rate
[9] = test system: NCI-H460; test: as above; format: cell-based; conditions: Homo sapiens; 10 μM; NCI-H460, Non-small Cell Lung Cancer; read-out: Growth percent rate
[10] = test system: NCI-H522; test: as above; format: cell-based; conditions: Homo sapiens; 10 μM; NCI-H522, Non-small Cell Lung Cancer; read-out: Growth percent rate
[11] = test system: COLO 205; test: NCI60 one-dose screen (10 μM), Colon Cancer; format: cell-based, human; conditions: Homo sapiens; 10 μM; COLO 205, Colon Cancer; read-out: Growth percent rate
[12] = test system: HCT-116; test: NCI60 one-dose screen (10 μM), Colon Cancer; format: cell-based; conditions: Homo sapiens; 10 μM; HCT-116, Colon Cancer; read-out: Growth percent rate
[13] = test system: HCT-15; test: NCI60 one-dose screen (10 μM), Colon Cancer; format: cell-based; conditions: Homo sapiens; 10 μM; HCT-15, Colon Cancer; read-out: Growth percent rate
[14] = test system: HT29; test: NCI60 one-dose screen (10 μM), Colon Cancer; format: cell-based; conditions: Homo sapiens, HT-29; 10 μM; HT29, Colon Cancer; read-out: Growth percent rate
[15] = test system: KM12; test: NCI60 one-dose screen (10 μM), Colon Cancer; format: cell-based, human; conditions: Homo sapiens; 10 μM; KM12, Colon Cancer; read-out: Growth percent rate
[16] = test system: SW-620; test: NCI60 one-dose screen (10 μM), Colon Cancer; format: cell-based; conditions: Homo sapiens; 10 μM; SW-620, Colon Cancer; read-out: Growth percent rate
[17] = test system: SF-268; test: NCI60 one-dose screen (10 μM), CNS Cancer; format: cell-based; conditions: Homo sapiens; 10 μM; SF-268, CNS Cancer; read-out: Growth percent rate
[18] = test system: SF-295; test: NCI60 one-dose screen (10 μM), CNS Cancer; format: cell-based; conditions: Homo sapiens; 10 μM; SF-295, CNS Cancer; read-out: Growth percent rate
[19] = test system: SF-539; test: NCI60 one-dose screen (10 μM), CNS Cancer; format: cell-based, human; conditions: Homo sapiens; 10 μM; SF-539, CNS Cancer; read-out: Growth percent rate
[20] = test system: SNB-19; test: NCI60 one-dose screen (10 μM), CNS Cancer; format: cell-based; conditions: Homo sapiens; 10 μM; SNB-19, CNS Cancer; read-out: Growth percent rate
[21] = test system: SNB-75; test: NCI60 one-dose screen (10 μM), CNS Cancer; format: cell-based, human; conditions: Homo sapiens; 10 μM; SNB-75, CNS Cancer; read-out: Growth percent rate
[22] = test system: U251; test: NCI60 one-dose screen (10 μM), CNS Cancer; format: cell-based; conditions: Homo sapiens, U-251; 10 μM; U251, CNS Cancer; read-out: Growth percent rate
[23] = test system: LOX IMVI; test: NCI60 one-dose screen (10 μM), Melanoma; format: cell-based, human; conditions: Homo sapiens; 10 μM; LOX IMVI, Melanoma; read-out: Growth percent rate
[24] = test system: MALME-3M; test: NCI60 one-dose screen (10 μM), Melanoma; format: cell-based; conditions: Homo sapiens; 10 μM; MALME-3M, Melanoma; read-out: Growth percent rate
[25] = test system: M14; test: NCI60 one-dose screen (10 μM), Melanoma; format: cell-based; conditions: Homo sapiens; 10 μM; M14, Melanoma; read-out: Growth percent rate
[26] = test system: SK-MEL-2; test: NCI60 one-dose screen (10 μM), Melanoma; format: cell-based; conditions: Homo sapiens; 10 μM; SK-MEL-2, Melanoma; read-out: Growth percent rate
[27] = test system: SK-MEL-28; test: NCI60 one-dose screen (10 μM), Melanoma; format: cell-based; conditions: Homo sapiens; 10 μM; SK-MEL-28, Melanoma; read-out: Growth percent rate
[28] = test system: SK-MEL-5; test: NCI60 one-dose screen (10 μM), Melanoma; format: cell-based, human; conditions: Homo sapiens; 10 μM; SK-MEL-5, Melanoma; read-out: Growth percent rate
[29] = test system: UACC-257; test: NCI60 one-dose screen (10 μM), Melanoma; format: cell-based; conditions: Homo sapiens; 10 μM; UACC-257, Melanoma; read-out: Growth percent rate
[30] = test system: IGROV1; test: NCI60 one-dose screen (10 μM), Ovarian Cancer; format: cell-based; conditions: Homo sapiens, IGROV-1; 10 μM; IGROV1, Ovarian Cancer; read-out: Growth percent rate
[31] = test system: OVCAR-3; test: NCI60 one-dose screen (10 μM), Ovarian Cancer; format: cell-based; conditions: Homo sapiens; 10 μM; OVCAR-3, Ovarian Cancer; read-out: Growth percent rate
[32] = test system: OVCAR-8; test: NCI60 one-dose screen (10 μM), Ovarian Cancer; format: cell-based; conditions: Homo sapiens; 10 μM; OVCAR-8, Ovarian Cancer; read-out: Growth percent rate
[33] = test system: 786–0; test: NCI60 one-dose screen (10 μM), Renal Cancer; format: cell-based; conditions: Homo sapiens; 10 μM; 786-0, Renal Cancer; read-out: Growth percent rate
[34] = test system: A498; test: NCI60 one-dose screen (10 μM), Renal Cancer; format: cell-based; conditions: Homo sapiens; 10 μM; A498, Renal Cancer; read-out: Growth percent rate
[35] = test system: ACHN; test: NCI60 one-dose screen (10 μM), Renal Cancer; format: cell-based; conditions: Homo sapiens, 10 μM, Renal Cancer, read-out: Growth percent rate
[36] = test system: RXF 393; test: NCI60 one-dose screen (10 μM), Renal Cancer; format: cell-based, human; conditions: Homo sapiens; 10 μM; RXF 393, Renal Cancer; read-out: Growth percent rate
[37] = test system: SN12C; test: NCI60 one-dose screen (10 μM), Renal Cancer; format: cell-based; conditions: Homo sapiens, 10 μM, Renal Cancer, read-out: Growth percent rate
[38] = test system: TK-10; test: NCI60 one-dose screen (10 μM), Renal Cancer; format: cell-based; conditions: Homo sapiens; 10 μM; TK-10, Renal Cancer; read-out: Growth percent rate
[39] = test system: DU-145; test: NCI60 one-dose screen (10 μM), Prostate Cancer; format: cell-based; conditions: Homo sapiens; 10 μM; DU-145, Prostate Cancer; read-out: Growth percent rate
[40] = test system: MCF7; test: NCI60 one-dose screen (10 μM), Breast Cancer; format: cell-based; conditions: Homo sapiens; 10 μM; MCF7, Breast Cancer; read-out: Growth percent rate
[41] = test system: HS 578T; test: NCI60 one-dose screen (10 μM), Breast Cancer; format: cell-based; conditions: Homo sapiens; 10 μM; HS 578T, Breast Cancer; read-out: Growth percent rate
[42] = test system: 60 human tumor cell lines (NCI60); test: NCI60 one-dose screen (10 μM), whole panel; format: cell-based; conditions: 10 μM; mean over 60 human cancer cell lines; read-out: Growth percent rate, Mean

CCC12C=CCN3CCC4(c5cc(NC(=O)CN6CCN(C)CC6)c(OC)cc5N(C)C4C(O)(C(=O)OC)C1OC(C)=O)C32 (stereo not drawn) [Compound 16]
activity at 10 µM [1]: 112%
activity at 10 µM [2]: 97.5%
activity at 10 µM [3]: 85.8%
activity at 10 µM [4]: 108%
activity at 10 µM [5]: 102%
activity at 10 µM [6]: 97.1%
activity at 10 µM [7]: 104%
activity at 10 µM [8]: 101%
activity at 10 µM [9]: 142%
activity at 10 µM [10]: 90.2%
activity at 10 µM [11]: 105%
activity at 10 µM [12]: 101%
activity at 10 µM [13]: 101%
activity at 10 µM [14]: 104%
activity at 10 µM [15]: 112%
activity at 10 µM [16]: 124%
activity at 10 µM [17]: 116%
activity at 10 µM [18]: 98.8%
activity at 10 µM [19]: 101%
activity at 10 µM [20]: 105%
activity at 10 µM [21]: 95.6%
activity at 10 µM [22]: 97.4%
activity at 10 µM [23]: 95.2%
activity at 10 µM [24]: 97.5%
activity at 10 µM [25]: 101%
activity at 10 µM [26]: 108%
activity at 10 µM [27]: 111%
activity at 10 µM [28]: 102%
activity at 10 µM [29]: -7.95%
activity at 10 µM [30]: 112%
activity at 10 µM [31]: 138%
activity at 10 µM [32]: 97.8%
activity at 10 µM [33]: 106%
activity at 10 µM [34]: 158%
activity at 10 µM [35]: 104%
activity at 10 µM [36]: 102%
activity at 10 µM [37]: 109%
activity at 10 µM [38]: 103%
activity at 10 µM [39]: 115%
activity at 10 µM [40]: 84.3%
activity at 10 µM [41]: 111%
activity at 10 µM [42]: 103%

CC[C@]12C=CCN3CC[C@@]4(c5ccc(OC)cc5N(C)[C@H]4[C@@](O)(C(=O)OC)[C@@H]1OC(=O)CCC(=O)N1CCN(C)CC1)[C@@H]32 [Compound 27]
activity at 10 µM [1]: 104%
activity at 10 µM [2]: 112%
activity at 10 µM [3]: 124%
activity at 10 µM [4]: 100%
activity at 10 µM [5]: 94.5%
activity at 10 µM [6]: 94.2%
activity at 10 µM [7]: 119%
activity at 10 µM [8]: 110%
activity at 10 µM [9]: 102%
activity at 10 µM [10]: 84.5%
activity at 10 µM [11]: 118%
activity at 10 µM [12]: 103%
activity at 10 µM [13]: 103%
activity at 10 µM [14]: 96.7%
activity at 10 µM [15]: 100%
activity at 10 µM [16]: 105%
activity at 10 µM [17]: 99.5%
activity at 10 µM [18]: 97.9%
activity at 10 µM [19]: 100%
activity at 10 µM [20]: 108%
activity at 10 µM [21]: 64.3%
activity at 10 µM [22]: 110%
activity at 10 µM [23]: 93%
activity at 10 µM [24]: 112%
activity at 10 µM [25]: 114%
activity at 10 µM [26]: 88.2%
activity at 10 µM [27]: 94.8%
activity at 10 µM [28]: 91.5%
activity at 10 µM [29]: 99.2%
activity at 10 µM [30]: 96.8%
activity at 10 µM [31]: 89.2%
activity at 10 µM [32]: 99.6%
activity at 10 µM [33]: 99.7%
activity at 10 µM [34]: 105%
activity at 10 µM [35]: 99.2%
activity at 10 µM [36]: 82.3%
activity at 10 µM [37]: 86.7%
activity at 10 µM [38]: 91.9%
activity at 10 µM [39]: 103%
activity at 10 µM [40]: 81%
activity at 10 µM [41]: 70.8%
activity at 10 µM [42]: 99.5%
